Values quoted from earlier work as cited in US20100292280A1, “ANTI-PYRETIC VASODILATORS” (priority 2007, published 2010).

Tests used:
[1] = system: forearm and dorsum of the foot skin of healthy subjects and diabetic neuropathic patients
healthy adults = conditions: ingestion of 5 mg niacin per Kg body weight
skin = conditions: doses of niacin over 50 mg

Row | SMILES | vasodilatory response compared to the acetylcholine and sodium nitroprusside responses ([1]; control group, foot) | vasodilatory response, comparison between agents ([1]; control group, forearm) | maximal vasodilatory response, comparison between agents ([1]; diabetic patients, forearm and foot level) | time after application at which vasodilation was present ([1]; topical 1% methyl nicotinate) [min] | time of decline of vasodilation to pre-application levels ([1]; topical 1% methyl nicotinate) [min] | time of peak vasodilation ([1]; topical 1% methyl nicotinate) [min] | duration of the decrease of core body temperature (healthy adults) | time at which the sharp decrease in body temperature begins, after oral ingestion (healthy adults) | time of the peak of continuous temperature reduction, after ingestion (healthy adults) | undesired side effect reported by a significant portion of the subjects (healthy adults) | decrease of core body temperature (healthy adults; on average) [°C] | duration of flushing of the skin (skin)
1 | COC(=O)c1cccnc1 [methyl nicotinate] | higher | similar | similar | 5 | 120 | 15 to 30 | – | – | – | – | – | –
2 | O=C(O)c1cccnc1 [niacin, nicotinic acid] | – | – | – | – | – | – | about 70 minutes | about 20 minutes | about 50 minutes | sever hypotension | 0.44 | about 60 minutes
